These results are taken from publication PMC8657912, “Substrate-Dependent Trans-Stimulation of Organic Cation Transporter 2 Activity” (International Journal of Molecular Sciences, 2021).

The target in series [1] is T1, human OCT2 (Homo sapiens, UniProt O15244).
T1 sequence (O15244 1-555): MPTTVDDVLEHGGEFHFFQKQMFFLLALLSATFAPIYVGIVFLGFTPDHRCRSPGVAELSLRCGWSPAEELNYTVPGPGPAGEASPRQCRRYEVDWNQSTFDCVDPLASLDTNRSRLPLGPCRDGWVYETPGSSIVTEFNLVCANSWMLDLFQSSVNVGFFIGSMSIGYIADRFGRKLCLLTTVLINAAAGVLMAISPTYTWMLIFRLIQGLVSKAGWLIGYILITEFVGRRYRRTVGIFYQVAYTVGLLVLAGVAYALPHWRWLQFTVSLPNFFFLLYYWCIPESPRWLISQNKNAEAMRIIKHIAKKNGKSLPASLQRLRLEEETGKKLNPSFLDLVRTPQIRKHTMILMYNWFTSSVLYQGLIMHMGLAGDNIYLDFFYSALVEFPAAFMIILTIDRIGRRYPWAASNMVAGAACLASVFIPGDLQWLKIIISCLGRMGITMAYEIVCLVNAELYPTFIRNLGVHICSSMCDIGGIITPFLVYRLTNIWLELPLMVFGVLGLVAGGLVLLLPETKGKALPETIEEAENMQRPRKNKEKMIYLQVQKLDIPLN
The series is described as follows: Cis-inhibition of OCT2-mediated DiASP uptake in HEK-OCT2 cells. The method, then:
(§1) They were cultured in Dulbecco’s modified Eagle medium (DMEM) (Life Technologies, Carlsbad, CA, USA), supplemented with 10% (vol/vol) fetal calf serum, 10 IU/mL penicillin, 10 μg/mL streptomycin, 1% non-essential amino acids, and 1 μg/mL insulin, as already reported.
Cis-inhibition of OCT2 activity was analysed as previously described. Briefly, HEK-OCT2 cells were incubated with 10 µM DiASP, in the absence (control) of the presence of 100 µM amitriptyline (used here as a reference inhibitor of OCT2 activity) or of various concentrations of the OCT2 substrates, for 5 min. The transport assay medium consisted of 5.3 mM KCl, 1.1 mM KH2PO4, 0.8 mM MgSO4, 1.8 mM CaCl2, 11 mM dextrose, 10 mM HEPES, and 136 mM NaCl, adjusted to pH = 7.4. Next, cells were washed with phosphate-buffered saline (PBS) and lysed in distilled water. Intracellular accumulation of DiASP was then determined by spectrofluorimetry using a PerkinElmer Enspire spectrofluorometer (Waltham, MA, USA); excitation and emission wavelengths were 485 nm and 607 nm, respectively. DiASP accumulation values were thereafter normalized to total protein content, determined by the Bradford method.
IC50 values of OCT2 substrates towards OCT2-mediated uptake of DiASP and the corresponding 95% confidence intervals were determined from nonlinear regression of concentration-response data, based on the four-parameter logistic function. They were calculated using Prism 9.3 software (GraphPad Software, San Diego, CA, USA), through the following Equation (2):(2) A = 100/1 + 10^OCT2 substrate − LogIC50 × Hill slope where A = the percentage of transporter activity for a given concentration of OCT2 substrate determined as described in Equation (1), [OCT2 substrate] = OCT2 substrate concentration in the transport assay medium, and Hill slope = a coefficient describing the steepness of the curve.

The target in series [2] is T1, human OCT2. Put plainly: Uptake trans-stimulation assay of OCT2-mediated DiASP uptake in HEK-OCT2 cells. Type of series: cell-based. On the set-up: host or cells: HEK293 (HEK-OCT2). The settings on record: for Trans-modulation of OCT2-mediated DiASP uptake (in words): HEK-OCT2 cells preloaded 30 min with substrate, 0.01–10 mM or 0.1–100 µM range. The method, then: Uptake trans-stimulation assays were performed as schematically depicted in Figure 4.
Figure 4 Schematic representation of the various steps of the trans-stimulation assay performed for investigating OCT2 substrates (created with biorender.com). Step 1 corresponds to the initial incubation of cells without (Control) or with candidate substrate for 30 min at 37 °C. Step 2 consists of the incubation of cells with the reference tracer substrate (DiASP) for 5 min at 37 °C. Step 3 is the measurement of cellular accumulation of DiASP through spectrofluorimetry.
as §1
OCT2 trans-stimulation assays were performed through monitoring cellular uptake of the tracer substrate DiASP. As schematically depicted in Figure 4, HEK-OCT2 cells were first incubated in the absence (control) or presence of different concentrations of OCT2 substrates for 30 min at 37 °C in the transport assay medium described above. After washing with PBS, cells were re-incubated with 10 µM DiASP for 5 min. Cellular accumulation of the fluorescence dye was next determined by spectrofluorimetry, as reported above. Data were commonly expressed as % of DiASP uptake in control cells, set at 100%, or as fluorescence arbitrary units (FAU)/mg protein.

The test system of the next series is OCT2. The settings on record: cited from earlier work; for Trans-stimulation of OCT2-mediated MPP+ uptake: MPP+ as tracer; for Trans-stimulation of OCT2 activity: radiolabelled MPP+ as tracer substrate.
The next series relates to HEK-MOCK cells. The series is described as follows: Trans-stimulation assay of DiASP uptake in control HEK-MOCK cells. Type of series: cell-based, human. The settings on record: data not shown.
The test system of a further series is OCT3 (SLC22A3). On the set-up: method as in PMID 12538837. The settings on record: cited from earlier work.
Where [3] appears, read: read-out: IC50 towards OCT2-mediated uptake of DiASP (cis-inhibition), HEK-OCT2 cells, 10 µM DiASP, 5 min, 37 °C, 95% CI in brackets.
[4] abbreviates: HEK-OCT2 cells preloaded 30 min 37 °C, washed, then 10 µM DiASP 5 min.

pIC50: −log10 of the molar value. Like-named read-outs stand apart in the source and are kept apart here.

One may read the pIC50 as the negative decadic logarithm of the IC50, by convention in mol/L. On to `CC[N+](CC)(CC)CC` [TEA, tetra-ethylammonium], for which the pIC50 at human OCT2 [1] (setting [3]) was 3.74.

For the compound `Cc1ncc(C[n+]2csc(CCO)c2C)c(N)n1` [Thiamine, thiamine], the “Lowest trans-inhibiting concentration towards DiASP uptake” value on human OCT2 [2] (setting [4]) is on record as 10 mM. Besides, the pIC50 at human OCT2 [1] is 3.57.

On to `C[n+]1ccc(-c2ccccc2)cc1` [MPP^+, 1-methyl-4-phenyl pyridinium], for which the “Trans-stimulation of OCT2-mediated MPP+ uptake” value in the series with OCT2 is recorded as “failed to trans-stimulate”. The “Trans-modulation of OCT2-mediated DiASP uptake (in words)” value (“Trans-modulation” for short) on human OCT2 [2] is “failed to trans-stimulate”. Moreover, the negative-log IC50 (pIC50) on human OCT2 [1] (setting [3]) is 6.04.

The compound `CCN1CCCC1CNC(=O)c1cc(S(=O)(=O)CC)c(N)cc1OC` (centres unmarked) [Amisulpride, amisulpride] showed a pIC50 against human OCT2 [1] of 4.40.

For `NCCc1ccc(O)c(O)c1` [Dopamine, dopamine], the “Lowest trans-inhibiting concentration towards DiASP uptake” value at human OCT2 [2] (setting [4]) stood at 10 mM. Besides, the pIC50 on human OCT2 [1] was 2.62.

On to `CN(C)C(=N)N=C(N)N` [Metformin, metformin], for which the “Trans-stimulation of OCT2 activity” value with OCT2 is recorded as “trans-stimulate”. Further, the “Trans-stimulation of DiASP uptake in control HEK-MOCK cells” value with HEK-MOCK cells is “failed to significantly trans-stimulate”. Further, the “Trans-modulation” value on human OCT2 [2] was “trans-stimulate”. The compound also showed a pIC50 at human OCT2 [1] of 2.94.

For `NCCCCN=C(N)N` [Agmatine, agmatine], at human OCT2 [2] (setting [4]), the “Loading concentration that significantly trans-stimulates DiASP uptake” value amounted to 0.1 mM and the “Lowest trans-inhibiting concentration towards DiASP uptake” value stood at 10 mM. In addition, on human OCT2 [2], the “Trans-modulation” value is on record as “trans-stimulate”. Further, the “Trans-stimulation of OCT3 activity” value in the series on OCT3 (SLC22A3) was “trans-stimulate”. This compound gave a pIC50 against human OCT2 [1] of 3.39.

On to `COCCn1c2c([n+](Cc3cnccn3)c1C)C(=O)c1ccccc1C2=O` [Sepantronium, sepantronium], for which, at human OCT2 [2] (setting [4]), the “Lowest trans-inhibiting concentration towards DiASP uptake” value came to 0.001 mM. On human OCT2 [1], the pIC50 was 5.15.

Regarding `CC(=O)OCC[N+](C)(C)C` [Acetylcholine, acetylcholine], the “Trans-modulation” value on human OCT2 [2] is recorded as “trans-stimulate”. On human OCT2 [1], the pIC50 was 3.28.

With `NCCc1c[nH]c2ccc(O)cc12` [Serotonin, serotonin], the “Lowest trans-inhibiting concentration towards DiASP uptake” value on human OCT2 [2] (setting [4]) was 1 mM. The pIC50 at human OCT2 [1] is 3.74.

For `CN/C(=N/CCSCc1nc[nH]c1C)NC#N` [Cimetidine, cimetidine], in the series with OCT2, the “Trans-stimulation of OCT2-mediated MPP+ uptake” value is “failed to trans-stimulate”. Further, the “Lowest trans-inhibiting concentration towards DiASP uptake” value at human OCT2 [2] (setting [4]) was found to be 10 mM. Further, the “Trans-modulation” value on human OCT2 [2] is “failed to trans-stimulate”. Also, the pIC50 at human OCT2 [1] is 4.10.

As for `Nc1ccn([C@@H]2CS[C@H](CO)O2)c(=O)n1` [Lamivudine, lamivudine], on human OCT2 [2], the “Lowest trans-inhibiting concentration towards DiASP uptake” value was 10 mM. In addition, at human OCT2 [1], the pIC50 is 2.72.

With `CN(C)CCC=C1c2ccccc2CCc2ccccc21` [amitriptyline], the “Effect on metformin-stimulated uptake of DiASP” value at human OCT2 [2] (100 µM amitriptyline during DiASP step, cells preloaded with 10 mM metformin 30 min) is listed as “fully suppressed”. Also, the “Effect on uptake of DiASP in HEK-OCT2 cells not preloaded with metformin” value on human OCT2 [1] (100 µM amitriptyline, 10 µM DiASP 5 min 37 °C) is on record as “abolished”.

As to `CNC[C@H](O)c1ccc(O)c(O)c1` [Epinephrine, epinephrine], the “Lowest trans-inhibiting concentration towards DiASP uptake” value on human OCT2 [2] (setting [4]) was 1 mM. Moreover, the pIC50 against human OCT2 [1] is 2.83.

As to `C[N+](C)(C)CCO` [Choline, choline], in the series with OCT2, the “Trans-stimulation of OCT2 activity” value is listed as “trans-stimulate”. On human OCT2 [2] (setting [4]), the “Loading concentration that significantly trans-stimulates DiASP uptake” value was 1 mM. Moreover, the “Trans-modulation” value on human OCT2 [2] is “trans-stimulate”. This compound also gave a pIC50 on human OCT2 [1] of 2.88.
